In patent publication US12213483B1, “Herbicidal compositions comprising trifludimoxazin” (BASF SE, priority 2024, dated 2025):

What was measured:
Format in all cases: in vivo
[1] = system: Abutilon theophrasti (ABUTH); test: Post-emergence application in greenhouse trials, ABUTH
Procedure: (§1) In the examples below, using the method of S. R. Colby (1967) “Calculating synergistic and antagonistic responses of herbicide combinations”, Weeds 15, p. 22ff., the value E, which is expected if the activity of the individual active compounds is only additive, was calculated: E=X+Y−(X·Y/100) • where • X=percent activity using active herbicide A at an application rate a; • Y=percent activity using active trifludimoxazin at an application rate b; • E=expected activity (in %) by A+B at application rates a+b.
(§2) If the value found experimentally is higher than the value E calculated according to Colby, a synergistic effect is present.
(§3) The culture containers used were plastic pots containing loamy sand with approximately 3.0% of humus as substrate. The seeds of the test plants were sown separately for each species.
(§4) For the post-emergence treatment, the test plants were grown to a plant height of from 3 to 15 cm, depending on the plant habit, and only then treated with the active compounds which had been suspended or emulsified in water. To this end, the test plants were either sown directly, and grown in the same containers, or they were first grown separately as seedlings and transplanted into the test containers a few days prior to treatment.
(§5) Depending on the species, the plants were kept at 10-25° C. and 20-35° C., respectively.
(§6) The test period extended over 2 to 4 weeks. During this time, the plants were tended and their response to the individual treatments was evaluated.
(§7) Evaluation was carried out using a scale from 0 to 100. 100 means no emergence of the plants, or complete destruction of at least the above-ground parts, and 0 means no damage or normal course of growth. A good herbicidal activity is given at values of at least 70, and very good herbicidal activity is given at values of at least 85.
(§8) In the greenhouse trials, unless indicated otherwise, herbicide A, trifludimoxazin and saflufenacil were formulated (50 g/I) and applied with addition of 1% MSO (methylated seed oil) as adjuvant. The solvent used was water (200 I/ha).

[2] = system: Kochia scoparia (KCHSC); test: Post-emergence application in field trials, KCHSC; conditions: 28 DAT; water volume 100 l/ha; pre plant burndown; growth stage 11-16; height 1-9 cm; 18 g ai/ha
Procedure: as §1, §2
(§9) On field test sites, natural weed infestation or seeded weeds were treated post-emergence of the weeds.
(§10) In the field trials, the weedy plants were treated as indicated below.
(§11) Herbicide A-1 (342 g/I), trifludimoxazin (500 g/I) and saflufenacil (342 g/I) were, together with addition of 1% MSO (methylated seed oil) as adjuvant (unless indicated otherwise), formulated in water as distribution medium as indicated and sprayed with commercial flat fan nozzles.
(§12) In the following experiments, the herbicidal activity for the individual herbicidal compositions (solo and mixture applications) was assessed at the indicated days after treatment (DAT). […]

[3] = system: Commelina benghalensis (COMBE); test: Post-emergence application in greenhouse trials, COMBE
Procedure: as §1, §2, §3, §4, §5, §6, §7, §8

[4] = system: Sorghum bicolor (SORVU); test: Post-emergence application in field trials, SORVU; conditions: 22 DAT, water volume 200 l/ha, growth stage 21-31, volunteer crop, non PPO-i herbicide tolerant
Procedure: as §1, §2, §9, §10, §11, §12

[5] = system: Echinocloa crus-galli (ECHCG); test: Post-emergence application in greenhouse trials, ECHCG; conditions: GS 13
Procedure: as §1, §2, §3, §4, §5, §6, §7, §8

[6] = system: Avena fatua (AVEFA); test: Post-emergence application in field trials, AVEFA; conditions: 29 DAT; water volume 100 l/ha; pre plant burndown; growth stage 14-23; height 24-40 cm; 18 g ai/ha
Procedure: as §1, §2, §9, §10, §11
(§13) In the following experiments, the herbicidal activity for the individual herbicidal compositions (solo and mixture applications) was assessed at the indicated days after treatment (DAT). The assessments for the damage on undesired weeds caused by the composition was carried out using a scale from 0 to 100%, compared to the untreated control plants. Here, 0 means no damage and 100 means complete destruction of the plants.
(§14) Herbicide A-1 (100 g/l) and trifludimoxazin (500 g/l) were, together with addition of 1% MSO (methylated seed oil) as adjuvant (unless indicated otherwise), formulated in water as distribution medium as indicated and sprayed with commercial flat fan nozzles.

[7] = system: Brachiaria decumbens (BRADC); test: Post-emergence application in greenhouse trials, BRADC; conditions: GS 13
Procedure: as §1, §2, §3, §4, §5, §6, §7, §8

[8] = system: Cyperus iria (CYPIR); test: Post-emergence application in field trials, CYPIR; conditions: 3 DAT, height 3-5 cm
Procedure: as §1, §2, §9, §10, §11, §13, §14

[9] = system: Sinapis alba (SINAL); test: Post-emergence application in field trials, SINAL; conditions: 7 DAT; water volume 200 l/ha; growth stage 14-21; height 11-12 cm; 12.5 g ai/ha
Procedure: as §1, §2, §9, §10, §11, §12

[10] = system: Senna obtusifolia (CASOB); test: Post-emergence application in field trials, CASOB; conditions: 43 DAT, water volume 200 l/ha, growth stage 12-35, height 5-20 cm
Procedure: as §1, §2, §9, §10, §11, §13, §14

[11] = 20 DAT, growth stage 33, 0.2 g ai/ha
[12] = 20 DAT, growth stage 21, 0.3 g ai/ha
[13] = water volume 200 l/ha, growth stage 13-14, 25 g ai/ha

C#CCN1C(=O)C(F)(F)Oc2cc(F)c(-n3c(=O)n(C)c(=S)n(C)c3=O)cc21 [B-1, trifludimoxazin]
% Herbicidal activity ([1]; 6 DAT, GS 33, B-1 0.2 g ai/ha): 20%
% Herbicidal activity ([1]; 6 DAT, GS 33, B-1 0.3 g ai/ha): 20%
% Herbicidal activity ([1]; 6 DAT, GS 33, B-1 0.4 g ai/ha): 35%
% Herbicidal activity ([1]; 20 DAT, GS 33, B-1 0.3 g ai/ha): 0%
% Herbicidal activity [1, 11]: 0%
% Herbicidal activity [2]: 68%
% Herbicidal activity ([3]; 6 DAT, GS 21, B-1 0.3 g ai/ha): 45%
% Herbicidal activity ([3]; 20 DAT, GS 21, B-1 0.3 g ai/ha): 0%
% Herbicidal activity ([3]; 20 DAT, GS 21, B-1 0.9 g ai/ha): 15%
% Herbicidal activity [3, 12]: 0%
% Herbicidal activity ([4]; 12.5 g ai/ha): 20%
% Herbicidal activity ([5]; 7 DAT, B-1 0.8 g ai/ha): 40%
% Herbicidal activity ([5]; 20 DAT, B-1 1.1 g ai/ha): 60%
% Herbicidal activity [6]: 0%
% Herbicidal activity ([7]; 7 DAT, B-1 formulated as 500 g/l, B-1 1 g ai/ha): 15%
% Herbicidal activity ([7]; 7 DAT, B-1 formulated as 500 g/l, B-1 2 g ai/ha): 15%
% Herbicidal activity ([7]; 7 DAT, B-1 0.2 g ai/ha): 10%
% Herbicidal activity ([7]; 7 DAT, B-1 0.3 g ai/ha): 10%
% Herbicidal activity ([7]; 7 DAT, B-1 0.4 g ai/ha): 10%
% Herbicidal activity ([7]; 7 DAT, B-1 0.8 g ai/ha): 45%
% Herbicidal activity ([7]; 20 DAT, B-1 formulated as 500 g/l, B-1 2 g ai/ha): 10%
% Herbicidal activity ([7]; 20 DAT, B-1 0.3 g ai/ha): 5%
% Herbicidal activity [8, 13]: 63%
% Herbicidal activity ([8]; water volume 300 l/ha, burndown in fruit plantation (citrus), GS 13-14, B-1 25 g ai/ha): 65%
% Herbicidal activity [9]: 82%
% Herbicidal activity ([10]; 12.5 g ai/ha): 48%

CCOC(=O)COc1ccccc1Oc1nc(-n2c(=O)cc(C(F)(F)F)n(C)c2=O)c(F)cc1Cl [A-1, ethyl 2-[2-[[3-chloro-5-fluoro-6-[3-methyl-2,6-dioxo-4-(trifluoromethyl)pyrimidin-1-yl]-2-pyridyl]oxy]phenoxy]acetate]
% Herbicidal activity ([1]; 6 DAT, GS 33, A-1 0.2 g ai/ha): 65%
% Herbicidal activity ([1]; 6 DAT, GS 33, A-1 0.3 g ai/ha): 65%
% Herbicidal activity ([1]; 6 DAT, GS 33, A-1 0.8 g ai/ha): 85%
% Herbicidal activity ([1]; 20 DAT, GS 33, A-1 0.2 g ai/ha): 15%
% Herbicidal activity ([1]; 20 DAT, GS 33, A-1 0.3 g ai/ha): 15%
% Herbicidal activity [1, 11]: 15%
% Herbicidal activity [2]: 57%
% Herbicidal activity ([3]; 6 DAT, GS 21, A-1 0.3 g ai/ha): 65%
% Herbicidal activity ([3]; 20 DAT, GS 21, A-1 0.3 g ai/ha): 45%
% Herbicidal activity [3, 12]: 45%
% Herbicidal activity ([4]; 20 g ai/ha): 93%
% Herbicidal activity ([5]; 7 DAT, A-1 0.4 g ai/ha): 40%
% Herbicidal activity ([5]; 20 DAT, A-1 0.2 g ai/ha): 0%
% Herbicidal activity [6]: 80%
% Herbicidal activity ([7]; 7 DAT, B-1 formulated as 500 g/l, A-1 2 g ai/ha): 90%
% Herbicidal activity ([7]; 7 DAT, A-1 0.4 g ai/ha): 40%
% Herbicidal activity ([7]; 7 DAT, A-1 0.8 g ai/ha): 50%
% Herbicidal activity ([7]; 7 DAT, A-1 0.9 g ai/ha): 60%
% Herbicidal activity ([7]; 7 DAT, A-1 1 g ai/ha): 60%
% Herbicidal activity ([7]; 20 DAT, B-1 formulated as 500 g/l, A-1 2 g ai/ha): 90%
% Herbicidal activity ([7]; 20 DAT, A-1 0.9 g ai/ha): 55%
% Herbicidal activity [8, 13]: 23%
% Herbicidal activity ([8]; water volume 300 l/ha, burndown in fruit plantation (citrus), GS 13-14, A-1 25 g ai/ha): 23%
% Herbicidal activity [9]: 55%
% Herbicidal activity ([10]; 20 g ai/ha): 58%
% Herbicidal activity ([10]; 30 g ai/ha): 73%
